# According to patent US11376337B2, “Expression of neuropeptides” (California Institute of Technology, priority 2017, dated 2022):
# Entries after “also recorded” stand apart in the source; their conditions may differ.
# Assays:
# [1] = literature statement; cited from earlier work
# Nk3R [2] = target: T1, Nk3R (Homo sapiens, UniProt P29371); details: trials for schizophrenia, bipolar and panic disorder; cited from earlier work
# T1 sequence (P29371 1-465): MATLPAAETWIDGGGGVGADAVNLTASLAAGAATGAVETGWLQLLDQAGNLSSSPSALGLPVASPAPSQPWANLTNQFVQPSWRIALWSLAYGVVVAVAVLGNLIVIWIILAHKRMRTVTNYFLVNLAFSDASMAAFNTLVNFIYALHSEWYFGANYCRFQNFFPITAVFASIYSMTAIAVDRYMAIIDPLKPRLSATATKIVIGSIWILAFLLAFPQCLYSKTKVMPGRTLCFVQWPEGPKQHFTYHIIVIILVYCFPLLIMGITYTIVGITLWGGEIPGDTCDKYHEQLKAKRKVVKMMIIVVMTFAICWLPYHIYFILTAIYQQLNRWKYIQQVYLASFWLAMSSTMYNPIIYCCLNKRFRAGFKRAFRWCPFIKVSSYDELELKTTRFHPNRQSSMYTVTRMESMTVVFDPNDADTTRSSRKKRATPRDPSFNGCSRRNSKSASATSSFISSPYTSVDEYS
# Nk3R [3] = target: T2, Nk3R (Mus musculus, UniProt P47937); experiment: Social interaction assay, osanetant; details: SIS mice; acute systemic osanetant
# T2 sequence (P47937 1-452): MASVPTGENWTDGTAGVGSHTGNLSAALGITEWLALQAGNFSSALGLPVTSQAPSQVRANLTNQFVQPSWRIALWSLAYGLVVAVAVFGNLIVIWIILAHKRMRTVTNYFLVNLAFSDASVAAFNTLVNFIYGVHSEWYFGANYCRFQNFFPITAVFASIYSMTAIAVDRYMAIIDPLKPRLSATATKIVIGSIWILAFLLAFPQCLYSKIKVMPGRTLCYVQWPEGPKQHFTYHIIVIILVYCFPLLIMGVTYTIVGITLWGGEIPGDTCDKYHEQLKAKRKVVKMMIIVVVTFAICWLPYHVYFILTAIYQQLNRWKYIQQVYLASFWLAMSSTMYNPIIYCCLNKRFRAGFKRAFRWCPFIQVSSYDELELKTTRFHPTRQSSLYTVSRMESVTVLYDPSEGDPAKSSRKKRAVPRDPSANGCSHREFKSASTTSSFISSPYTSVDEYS
# Nk3R [4] = target: T2, Nk3R; experiment: Acoustic startle response, osanetant; details: SIS mice; acute systemic osanetant
# Nk3R [5] = target: T2, Nk3R; experiment: Looming disk assay (freezing), osanetant; details: for acute (and thereby persistent) freezing to innate threatening stimulus (looming disk): osanetant injection into CeA
# Nk3R [6] = target: T2, Nk3R; experiment: Resident intruder assay (aggression), osanetant; details: for SIS-induced aggression: osanetant microinfusion into DMH
# Nk3R [7] = target: T2, Nk3R; experiment: Tail rattles during looming disk assay, osanetant; details: SIS mice; acute systemic osanetant
# Nk3R [8] = target: T2, Nk3R; experiment: Tone fear conditioning test (freezing), osanetant; assay type: in vivo, mice; design: endogenous in cells; host or cells: living mice (wild-type C57Bl6/N males, Charles River); systemic i.p. dosing or microinfusion into dBNSTa, DMH, CeA; details: for acute (and thereby persistent) freezing to conditioned threatening stimulus (tone): osanetant injection into CeA; for SIS-induced persistent freezing to conditioned tone: osanetant microinfusion into dBNSTa, 375 ng per site, 20 min before test
# Nk3R [9] = target: T2, Nk3R; experiment: Shock reactivity (footshock), osanetant; assay type: in vivo, mice; design: endogenous in cells; host or cells: living mice (wild-type C57Bl6/N males, Charles River); systemic i.p. dosing or microinfusion into dBNSTa, DMH, CeA
# Nk3R [10] = target: T2, Nk3R; experiment: Return to housing with pre-isolation cagemates after SIS, osanetant; assay type: in vivo, mice; design: endogenous in cells; host or cells: living mice (wild-type C57Bl6/N males, Charles River); systemic i.p. dosing or microinfusion into dBNSTa, DMH, CeA; details: osanetant during SIS; data not shown
# [11] = SIS mice, osanetant 5 mg/kg i.p. 20 min prior to assay
# [12] = SIS mice, osanetant microinfusion into DMH
# [13] = osanetant 5 mg/kg i.p. 20 min prior to assay, during stimulus
# [14] = osanetant daily during two-week SIS, tested off-drug
# [15] = SIS mice, osanetant injection into CeA
# [16] = SIS mice, osanetant microinfusion into dBNSTa
smiles,measurement,setting,value
CC(=O)N(C)C1(c2ccccc2)CCN(CCC[C@]2(c3ccc(Cl)c(Cl)c3)CCCN(C(=O)c3ccccc3)C2)CC1 [osanetant],crossing of the blood-brain barrier,[1],crosses the blood-brain barrier
same,efficacy in clinical trials,Nk3R [2],lack of efficacy
same,tolerability in clinical trials,Nk3R [2],well tolerated
same,SIS-induced decreased social interaction (time in social zone),Nk3R [3],blocked; also recorded: attenuated
same,SIS-enhanced responding in acoustic startle assay,Nk3R [4],blocked; also recorded: attenuated
same,SIS-induced persistent (post) freezing to looming disk,Nk3R [5]; [11],blocked; also recorded: attenuated
same,acute (and thereby persistent) freezing to innate threatening stimulus (looming disk),Nk3R [5]; SIS mice,reduced
same,acute (and thereby persistent) freezing to innate threatening stimulus (looming disk),"Nk3R [5]; SIS mice, listed as Osanetant",selectively blocked
same,SIS-induced persistent freezing to looming disk,"Nk3R [5]; SIS mice, osanetant microinfusion into ACC",failed to yield significant effects; also recorded: No significant effects
same,persistent responses to looming stimulus,Nk3R [5]; [12],had no effect
same,SIS-induced persistent freezing to looming disk,"Nk3R [5]; SIS mice, osanetant microinfusion into dBNSTa, 375 ng per site, 20 min before test",selectively inhibited
same,SIS-induced persistent freezing to looming disk,"Nk3R [5]; SIS mice, osanetant microinfusion into dBNSTa, 375 ng per site, 20 min before test, listed as Osanetant",selectively blocked
same,SIS-induced persistent freezing to looming disk,"Nk3R [5]; SIS mice, osanetant microinfusion into striatum",failed to yield significant effects; also recorded: No significant effects
same,freezing during presentation of looming disk,Nk3R [5]; [13],no significant differences
same,persistent freezing to looming disk,Nk3R [5]; [14],prevented
same,aggression promoted by sexual experience,"Nk3R [6]; 2 weeks co-habitation with a female, no isolation, systemic osanetant",had no effect
same,SIS-enhanced aggression,Nk3R [6]; [11],blocked; also recorded: strongly reduced
same,aggression,Nk3R [6]; [15],unaffected
same,SIS-induced aggression,Nk3R [6]; SIS mice,abolished
same,SIS-induced aggression,"Nk3R [6]; SIS mice, listed as Osanetant",selectively blocked
same,aggression,Nk3R [6]; [16],no effect
same,SIS-enhanced aggression,Nk3R [6]; [14],prevented
same,SIS-induced increased tail rattling,Nk3R [7],blocked; also recorded: attenuated
same,SIS-induced persistent (post) freezing to fear-conditioned tone,Nk3R [8]; [11],blocked; also recorded: attenuated
same,acute (and thereby persistent) freezing to conditioned threatening stimulus (tone),Nk3R [8]; SIS mice,reduced
same,acute (and thereby persistent) freezing to conditioned threatening stimulus (tone),"Nk3R [8]; SIS mice, listed as Osanetant",selectively blocked
same,persistent responses to conditioned tone,Nk3R [8]; [12],had no effect
same,SIS-induced persistent freezing to conditioned tone,Nk3R [8]; SIS mice,selectively inhibited
same,SIS-induced persistent freezing to conditioned tone,"Nk3R [8]; SIS mice, listed as Osanetant",selectively blocked
same,freezing during presentation of fear-conditioned tone,Nk3R [8]; [13],no significant differences
same,persistent freezing to fear conditioned tone,Nk3R [8]; [14],prevented
same,SIS-induced increased shock reactivity,Nk3R [9]; [11],blocked
same,reactivity to footshock (SIS-enhanced),Nk3R [9]; [15],reduced; also recorded: blocked
same,responses to footshock,Nk3R [9]; [12],had no effect
same,shock reactivity,Nk3R [9]; [16],no effect
same,SIS-induced increase in shock reactivity,Nk3R [9]; [14],"a trend to protection; also recorded: reduced, but not significantly"
same,fighting after return to housing with pre-isolation cagemates,Nk3R [10],without any subsequent fighting observed
